The term EC50 denotes the concentration giving half of the maximal effect. High values mean a need for much substance, low ones an effect from little substance. The AUC is concentration integrated over time. The low end stands for low exposure, the high end for high exposure. For orientation: Cmax means the maximum level reached in the sampled fluid or tissue. A word on the half-life: it is how long it takes for the measured level to halve.

The values below come from patent US11890279B2, “Quinolines that modulate SERCA and their use for treating disease” (Neurodon Corporation, priority 2020, dated 2024).

One data set relates to CSM14.1 cells. The data set is described as follows: ER stress cell survival assay (thapsigargin).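 As to cell survival: survival read as CellTiter-Glo luminescence after overnight incubation.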 It is filed as cell-based. The following applies: for Cell Survival: compound 2 μM, about 15 μM thapsigargin, CSM14.1 cells; for EC50: dose-response. The protocol:
ER Stress Cell Survival Assay
CSM14.1 cells were maintained in Complete Medium at 32° C.; wherein the Complete Medium contained Dulbecco's modified eagle medium (DMEM) with 10% fetal bovine serum (FSB), 1% L-glutamine, 100 IU/mL penicillin, and 100 μg/mL streptomycin. The cells were recovered from cultures by trypsinization and then seeded in 384 well plates (Greiner #781098) at a concentration of 1,000 cells/well in 20 μL of DMEM Assay Medium, wherein the DMEM Assay Medium contained 2% FBS, 100 IU/mL penicillin, and 100 μg/mL streptomycin. Seeding was performed using a MultiDrop Combi reagent broadcaster. The plates were incubated overnight at 32° C.
A test compound was prepared by 2-fold serial dilution in 100% DMSO using a BIOMEK® 2000 liquid handler (Beckman Coulter). A dose-response curve containing 10 concentrations of the test compound was obtained. Using a BIOMEK® FX liquid handler (Beckman Coulter), 2.5 μL of the test compound was transferred from the 100% DMSO serial dilution plate to an intermediate plate containing 47.5 μL of DMEM Assay Medium containing 2% FBS, 100 IU/mL penicillin, and 100 μg/mL streptomycin and mixed. To reduce or eliminate the interference from the compound's precipitation, 6 μL of the diluted compound was immediately transferred to the assay plate to achieve a high compound concentration of 100 μM in 99% DMEM Assay Medium and 1% DMSO. After the assay plates were incubated for 2 hrs, 4 μL of 112.5 μM thapsigargin (TG) (DMSO stock diluted into Assay TC Medium) was dispensed into each testing well with a MultiDrop Combi reagent broadcaster for a final concentration of about 15 μM TG. The tissue culture media (4 μL) containing vehicle only was transferred manually to each control cell using a 16 channel electronic pipette. […] High luminescence indicates cell survival.
Alternatively, a test compound was tested at a single compound concentration (e.g., 2 μM) to determine the effect of the compound on cell survival in comparison with vehicle.

The next data set deals with SERCA (SR vesicles). As to the kind of experiment: Activation of SERCA, increase in Vmax. In kind it is biochemical.
The subject of data set [1] is N2a cells. The data set is described as follows: Protection against hydrogen peroxide-induced cell death, N2a. It is filed as cell-based, mouse. The following applies: compound 40 μM; hydrogen peroxide 200 μM. Here is the method: Protection against Hydrogen Peroxide-induced Cell-death. N2a cells grown in 96-well plates were exposed to a test compound (40 μM) for 2 hrs before addition of hydrogen peroxide (200 μM). After 40 min of incubation with hydrogen peroxide, ALAMARBLUE® regent (10% v/v) was added to the wells. Fluorescence reading was taken 2 hrs after the addition of the ALAMARBLUE® regent. Cell-viability was calculated as a percentage of relative fluorescence unit (RFU) compared to control.
(§1) The results are summarized in Table 2, where A represents a value greater than 50% cell rescue, B represents a value between 10% to 50% cell rescue, C represents a value between 1% to 10% cell rescue, and D represents a value no greater than 1% cell rescue.

In data set [2] the test system is N2a cells. As to the kind of experiment: Protection against thapsigargin (TG)-induced cell death, N2a. The following applies: compound 20 μM; thapsigargin 1 μM; 24 hrs. It is filed as cell-based, mouse. Here is the method:
Protection against Thapsigargin (TG)-induced Cell-death. Human embryonic kidney (HEK293) cells were grown in Dulbecco's Modified Eagle's Medium (DMEM) with 10% FBS and 1% antibiotic antimycotic solution (ABAM). Mouse neuroblastoma (N2a) cells were grown in 1:1 DMEM:OPTI-MEM® with 5% FBS and 1% ABAM. All cells were grown in 10% CO2 in a humidified environment of the incubator. Cells grown in 96-well plates were exposed to a test compound (20 μM) for 2 hrs before addition of thapsigargin (15 μM for HEK293 cells and 1 μM for N2a cells) to induce ER stress. After incubation in cell-culture incubator for 24 hrs, ALAMARBLUE® regent (10% v/v) was added to the wells. Fluorescence reading was taken 2 hrs after the addition of the ALAMARBLUE® regent. Cell-viability was calculated as a percentage of relative fluorescence unit (RFU) compared to control.
as §1

Data set [3] in a line: Pharmacokinetics in CD-1 mice. It is filed as in vivo, mouse. As to conditions: CD-1 mice. Here is the method:
Pharmacokinetics of test compounds were assessed in CD-1 mice. The compounds were formulated at 1 mg/mL in DMSO/Tween 80/water (10/10/80, vol/vol/vol) and dosed at 2 mg/kg intravenous (i.v.) or 10 mg/kg by oral gavage (P.O.) in triplicate. Blood was drawn at 0.25 h, 0.5 h, 1 hr, 2 hrs, 4 hrs, 8 hrs, and 24 hrs into EDTA containing tubes and plasma was harvested by centrifugation. Plasma (10 μL) containing 50% acetonitrile in water (5 μL) was added to 200 μL of ACN containing an internal standard. The samples were vortexed for 30 s. After centrifugation at […] and 4,000 rpm for 15 min, the supernatant was diluted 3 times with water. Then, 20 μL of diluted supernatant was injected into the LC/MS/MS system for quantitative analysis. The samples were injected onto an Agilent ZORBAX XDB-Phenyl 5μ column (50×2.10 mm). Mobile Phase A was water with 0.1% formic acid. Mobile Phase B was acetonitrile with 0.1% formic acid. Separation was achieved using a gradient of 70% A/30% B to 0% A/100% B over 2.10 min. A Shimadzu LCMS-8050 equipped with a turbo ion spray source was used for all analytical measurements. A positive ion MRM method was developed. Peak areas of the product ion were measured against the peak areas of the internal standard. Data was fit using WinNonLin (Pharsight Corporation, Mountain View, CA).

Setting [4] is: mouse, plasma, 2 mg/kg i.v. or 10 mg/kg P.O.

Experimental for SERCA (SR vesicles): Test compounds were characterized over a range of concentrations using an NADH-linked, enzyme-coupled ATPase assay. Each well contained 2 mg or 7 mg of SR vesicles (optimized for skeletal or cardiac SR, respectively), 50 mM MOPS (pH 7.0), 100 mM KCl, 5 mM MgCl2, 1 mM EGTA, 0.2 mM NADH, 1 mM phosphoenol pyruvate, 5 IU pyruvate kinase, 5 IU lactate dehydrogenase, and 3.5 mg/mL A23187 (a calcium ionophore), and CaCl2 was added to set free [Ca2+] to the specific values. The assay was started upon addition of ATP at a final concentration of 5 mM, and read in a SpectraMax Plus microplate spectrophotometer and the ATPase activities were fitted using the Hill function.

Consider `Cc1ccc2cccc(NC(=O)c3ccc(C(C)(C)C)cc3)c2n1` [Compound A4, 4-(tert-Butyl)-N-(2-methylquinolin-8-yl)benzamide], for which, in the data set with CSM14.1 cells, the “Cell Survival” value is listed as “D (D represents a value no greater than 1%)” and the EC50 was more than 100 µM. The “Increase in Vmax at 10 μM” value in the data set on SERCA (SR vesicles) is listed as “B′ (B′ represents an increase between 20 to 50%)”.

On to `O=C(Nc1cccc2cccnc12)c1cccc(F)c1` [Compound A7, 3-Fluoro-N-(quinolin-8-yl)benzamide], for which the “Increase in Vmax at 10 μM” value in the data set with SERCA (SR vesicles) is “B′ (B′ represents an increase between 20 to 50%)”.

Turning to `CCOc1ccccc1C(=O)Nc1cccc2ccc(C)nc12` [Compound A10, 2-Ethoxy-N-(2-methylquinolin-8-yl)benzamide], the “Increase in Vmax at 10 μM” value in the data set on SERCA (SR vesicles) is “C′ (C′ represents an increase no greater than 20%)”.

For `CC(C)Oc1ccc(C(=O)Nc2cccc3cccnc23)cc1` [Compound A11, 4-Isopropoxy-N-(quinolin-8-yl)benzamide], the “Increase in Vmax at 10 μM” value with SERCA (SR vesicles) is “A′ (A′ represents an increase greater than 50%)”.

Turning to `COc1ccc(CCC(=O)Nc2cccc3ccc(C)nc23)cc1` [Compound A23, 3-(4-Methoxyphenyl)-N-(2-methylquinolin-8-yl)propanamide], the “Increase in Vmax at 10 μM” value with SERCA (SR vesicles) is “A′ (A′ represents an increase greater than 50%)”.

`Cc1ccc2cccc(NC(=O)c3cc4ccccc4o3)c2n1` [Compound A27, N-(2-Methylquinolin-8-yl)benzofuran-2-carboxamide] showed an EC50 in the data set on CSM14.1 cells of less than 20 µM. Besides, in the data set on N2a cells [1], the “N2a Cells (H2O2-induced) cell rescue” value is reported as “A (A represents a value greater than 50% cell rescue)”. Besides, the “Increase in Vmax at 10 μM” value in the data set with SERCA (SR vesicles) is listed as “A′ (A′ represents an increase greater than 50%)”.

As for `Cc1ccc2cccc(NC(=O)c3cc4ccccc4s3)c2n1` [Compound B2, N-(2-Methylquinolin-8-yl)benzo[b]thiophene-2-carboxamide], the “N2a Cells (TG-induced) cell rescue” value with N2a cells [2] is given as “A (A represents a value greater than 50% cell rescue)”. Moreover, in the data set with N2a cells [1], the “N2a Cells (H2O2-induced) cell rescue” value is given as “B (B represents a value between 10% to 50% cell rescue)”. In the data set on SERCA (SR vesicles), the “Increase in Vmax at 10 μM” value was “A′ (A′ represents an increase greater than 50%)”.

Turning to `Cc1ccc2cccc(NC(=O)c3ccc(Cl)cc3)c2n1` [Compound C17, 4-Chloro-N-(2-methylquinolin-8-yl)benzamide], the “Cell Survival” value with CSM14.1 cells was “D (D represents a value no greater than 1%)”.

For the molecule `Cc1ccc2cccc(NC(=O)c3ccc(SC(C)C)cc3)c2n1` [Compound C21, 4-(Isopropylthio)-N-(2-methylquinolin-8-yl)benzamide], the “Cell Survival” value in the data set on CSM14.1 cells is “C (C represents a value between 1% and 10%)”.

Regarding `CCSc1ccc(C(=O)Nc2cccc3ccc(C)nc23)cc1` [Compound C22, 4-(Ethylthio)-N-(2-methylquinolin-8-yl)benzamide], the “Cell Survival” value with CSM14.1 cells is “D (D represents a value no greater than 1%)”.

`CC(C)Oc1ccc(C(=O)Nc2cccc3ccc(C(=O)O)nc23)cc1` [Compound E1, 8-(4-Isopropoxybenzamido)quinoline-2-carboxylic Acid]: the “N2a Cells (TG-induced) cell rescue” value with N2a cells [2] is recorded as “A (A represents a value greater than 50% cell rescue)”.

For the molecule `CC(C)Oc1cccc(C(=O)Nc2cccc3ccc(C(=O)O)nc23)c1` [Compound E2, 8-(3-Isopropoxybenzamido)quinoline-2-carboxylic acid], in the data set with N2a cells [2], the “N2a Cells (TG-induced) cell rescue” value was “A (A represents a value greater than 50% cell rescue)”.

As for `O=C(O)c1ccc2cccc(NC(=O)c3ccc(Br)s3)c2n1` [Compound E3, 8-(5-Bromothiophene-2-carboxamido)quinoline-2-carboxylic Acid], the “N2a Cells (TG-induced) cell rescue” value in the data set with N2a cells [2] is recorded as “A (A represents a value greater than 50% cell rescue)”.

`O=C(O)c1ccc2cccc(NC(=O)c3cc4ccccc4s3)c2n1` [Compound E4, 8-(Benzo[b]thiophene-2-carboxamido)quinoline-2-carboxylic Acid]: in the data set on N2a cells [2], the “N2a Cells (TG-induced) cell rescue” value is given as “B (B represents a value between 10% to 50% cell rescue)”.

As to `Cc1cc(C)n(-c2ccc3cccc(NC(=O)c4cccc(OC(C)C)c4)c3n2)n1` [Compound F1, N-(2-(3,5-Dimethyl-1H-pyrazol-1-yl)quinolin-8-yl)-3-isopropoxybenzamide], in the data set with N2a cells [2], the “N2a Cells (TG-induced) cell rescue” value is reported as “A (A represents a value greater than 50% cell rescue)”.

In the case of `Cc1cc(C)n(-c2ccc3cccc(NC(=O)c4ccc(OC(C)C)cc4)c3n2)n1` [Compound F2, N-(2-(3,5-Dimethyl-1H-pyrazol-1-yl)quinolin-8-yl)-4-isopropoxybenzamide], the “N2a Cells (TG-induced) cell rescue” value with N2a cells [2] is reported as “A (A represents a value greater than 50% cell rescue)”.

With `Cc1cc(C)n(-c2ccc3cccc(NC(=O)c4ccc(Br)s4)c3n2)n1` [Compound F3, 5-Bromo-N-(2-(3,5-dimethyl-1H-pyrazol-1-yl)quinolin-8-yl)thiophene-2-carboxamide], in the data set with N2a cells [2], the “N2a Cells (TG-induced) cell rescue” value is recorded as “A (A represents a value greater than 50% cell rescue)”.

In the case of `Cc1cc(C)n(-c2ccc3cccc(NC(=O)c4cc5ccccc5s4)c3n2)n1` [Compound F4, N-(2-(3,5-Dimethyl-1H-pyrazol-1-yl)quinolin-8-yl)benzo[b]thiophene-2-carboxamide], the “N2a Cells (TG-induced) cell rescue” value with N2a cells [2] is on record as “B (B represents a value between 10% to 50% cell rescue)”.

The molecule `Cc1ccc2cccc(NC(=O)c3ccc(C)s3)c2n1` [Compound G2, 5-Methyl-N-(2-methylquinolin-8-yl)thiophene-2-carboxamide] displayed a half-maximal effective concentration (EC50) in the data set with CSM14.1 cells of less than 20 µM. Moreover, in the data set on N2a cells [1], the “N2a Cells (H2O2-induced) cell rescue” value was “A (A represents a value greater than 50% cell rescue)”. The molecule also yielded a F in data set [3] (10 mg/kg P.O. vs 2 mg/kg i.v.) of 0.85%. In data set [3] (setting [4]), this molecule had an AUC of 4.5 ng·h/mL, a Cmax of 20 nM and a half-life of 33.6 min. Moreover, the “Increase in Vmax at 10 μM” value in the data set on SERCA (SR vesicles) is “A′ (A′ represents an increase greater than 50%)”.

`Cc1ccc2cccc(NC(=O)c3sc(Br)cc3Br)c2n1` [Compound G6, 3,5-Dibromo-N-(2-methylquinolin-8-yl)thiophene-2-carboxamide] yielded an EC50 in the data set with CSM14.1 cells of less than 20 µM. Also, in the data set on N2a cells [1], the “N2a Cells (H2O2-induced) cell rescue” value was “A (A represents a value greater than 50% cell rescue)”. For the same molecule, the “Increase in Vmax at 10 μM” value in the data set with SERCA (SR vesicles) was “C′ (C′ represents an increase no greater than 20%)”.

Consider `Cc1ccc2cccc(NC(=O)c3cc(Br)c(Br)s3)c2n1` [Compound G7, 4,5-Dibromo-N-(2-methylquinolin-8-yl)thiophene-2-carboxamide], for which the concentration giving a half-maximal response (EC50) in the data set on CSM14.1 cells is less than 20 µM. Also, the “N2a Cells (H2O2-induced) cell rescue” value with N2a cells [1] is on record as “A (A represents a value greater than 50% cell rescue)”. Further, in the data set with SERCA (SR vesicles), the “Increase in Vmax at 10 μM” value is “A′ (A′ represents an increase greater than 50%)”.
